Test system: bleomycin-induced pulmonary fibrosis
Assay: Bleomycin mouse model of pulmonary fibrosis
Assay type: in vivo
Conditions: bleomycin mice
Procedure: Bleomycin Mouse Study: In the initial in vivo siRNA study (FIGS. 22 and 23A-23C), adult male age-matched C57BL/6N mice at 6-8 weeks of age were purchased from the National Cancer Institute (NCI)-Frederick Mouse Repository (Frederick, MD, USA). All experiments were performed in accordance with National Institute of Health guidelines and protocols approved by the Massachusetts General Hospital Subcommittee on Research Animal Care, and maintained all mice in a specific pathogen-free (SPF) environment certified by the American Association for Accreditation of Laboratory Animal Care (AAALAC). 6-8 weeks old mice were anesthetized with ketamine and xylazine before exposure of the trachea. Lung fibrosis was induced by intratracheal injection of bleomycin (50 μl at 1.2 U/kg) or phosphate buffered saline (PBS; as control) on day 0. After 14 days Small interfering RNA (siRNA) duplexes targeting mouse Yap (L-046247-01-0005) or Taz (L-058248-01-0005) mRNA (Dharmacon) or nontargeting control siRNA were administered in vivo by intratracheal instillation at a single dose of 25 μg (each siRNA) per mouse. On day 21 Mice were sacrificed and lungs harvested for collagen determination and biochemical analyses. To obtain BAL samples for total protein concentration determination, lungs were lavaged with six 0.5-mL aliquots of PBS. BAL samples were centrifuged at 3,000 g for 20 min at 4° C. and transferred the supernatants to siliconized low-binding Eppendorf tubes (PGC Scientifics) for subsequent analysis. Total protein concentration of the BAL fluid was determined by BCA Protein Assay Kit (Pierce). In the dihydrexidine treatment studies (FIG. 17-21), 8 week old female C57/BL6 mice were purchased from Charles River Laboratories. Mouse lung fibrosis was induced with bleomycin (BLEO; Fresenius Kabi) delivered intratracheally (3 U/kg) to the lungs using MicroSprayer® Aerosolizer (Penn-Century). The Sham mice received sterile 0.9% saline instead using identical methods. Mice were weighed every 24 hrs, and both groups were then randomized at day 10 into DHX and Control treatment groups, matching for the degree of weight change. DHX (5 mg/kg) was administered everyday intranasally (i.n.) dissolved in surfactant (infasurf) which has previously shown to aid in spreading to pulmonary aveoli for 14 days. The control groups of mice received the equivalent vehicle dose of surfactant. Following the final DHX treatment, mice were sacrificed and the right lungs were inflated with 4% paraformaldehyde (PFA) and further incubated in 4% PFA for 24 hours prior processing for paraffin embedding. The left lobe of the lung was snap frozen in liquid nitrogen for RNA isolation and hydroxyproline assay. Experimental procedures were approved by the Mayo Clinic Institutional Animal Care and Use Committee and the animals were handled in accordance with their guidelines.
Histological Scoring: Five μm thick sections were cut from Paraffin embedded lung tissues, and the sections were stained either with hematoxylin and eosin (H&E) or with Masson's Trichrome stain kit (Abcam). All H&E-stained slides and trichrome-stained slides were reviewed in a blinded fashion by a thoracic pathologist. The severity of interstitial and peribronchiolar lung immature and mature fibrosis was estimated on a numerical scale according to Ashcroft et al. For scoring purposes, all H&E stained slides were systematically scanned at 100× magnification and successive 100× fields were scored. Scoring was based on the following scale: 0 (no fibrosis), 1 (minimal interstitial and/or peribronchiolar thickening due to fibrosis), 3 (moderate thickening without obvious architectural distortion), 5 (increased fibrosis with formation of fibrous bands and/or small masses), 7 (severe architectural distortion with large areas of fibrosis and areas of honeycomb changes), and 8 (total fibrous obliteration of the field). The predominant score for each field was recorded. The mean of all scores was calculated for each case. […]

**Q.** Which results are given for Oc1cc2c(cc1O)[C@H]1c3ccccc3CN[C@@H]1CC2 (racemic) [Dihydrexidine]?
**A.** lung remodeling by histology (Ashcroft, blinded pathologist) (DHX 5 mg/kg i.n. Day 10-24): nearly completely protected from lung remodeling; lung transcript levels of Acta2, Ctgf, Fn1, Col1a1, Col1a2, Yap and Taz (DHX 5 mg/kg i.n. Day 10-24): significantly attenuated; staining for YAP and TAZ in the lungs (DHX 5 mg/kg i.n. Day 10-24): attenuated; total collagen in the lungs (hydroxyproline) (DHX 5 mg/kg i.n. Day 10-24): nearly identical to sham treated mice; weight change (DHX 5 mg/kg once daily i.n. from Day 10, vs Bleo control): lost significantly less weight; expression of YAP/TAZ target genes in flow-sorted lung cells (two doses of DHX on day 10, lungs collected day 11): selectively blocks expression of YAP/TAZ target genes in lung fibroblasts

From patent publication US12264163B2, “Compounds and methods for treating fibrotic pathologies” (Mayo Foundation for Medical Education and Research, priority 2019, dated 2025)
